The record followed here is US20080090845A1, “Haloalkyl-substituted pyrimidinone derivatives” (Neurogen Corporation, priority 2006, published 2008).

Structures are written as SMILES. Where two headings read alike, the source gives them in different places. Some results are limits rather than exact numbers.

The assay addresses T1, human capsaicin receptor (Homo sapiens, UniProt Q8NER1).
T1 construct: pBK-CMV expression construct encoding the full length human capsaicin receptor; expressed in transfected cells
The assay is described as follows: Calcium mobilization assay, determination of antagonist activity (Example 6). In kind it is cell-based. The settings on record: cells expressing human capsaicin receptor, capsaicin-induced fluorescence response. How it is done: A cDNA encoding full length human capsaicin receptor (SEQ ID NO:1, 2 or 3 of U.S. Pat. No. 6,482,611) is subcloned in the plasmid pBK-CMV (Stratagene, La Jolla, Calif.) for recombinant expression in mammalian cells.
Human embryonic kidney (HEK293) cells are transfected with the pBK-CMV expression construct encoding the full length human capsaicin receptor using standard methods. The transfected cells are selected for two weeks in media containing G418 (400 μg/ml) to obtain a pool of stably transfected cells. Independent clones are isolated from this pool by limiting dilution to obtain clonal stable cell lines for use in subsequent experiments.
Cells transfected with expression plasmids (as described in Example 4) and thereby expressing human capsaicin receptor are seeded and grown to 70-90% confluency in FALCON black-walled, clear-bottomed 96-well plates (#3904, BECTON-DICKINSON, Franklin Lakes, N.J.). The culture medium is emptied from the 96 well plates and FLUO-3 AM calcium sensitive dye (Molecular Probes, Eugene, Oreg.) is added to each well (dye solution: 1 mg FLUO-3 AM, 440 μl DMSO and 440 μl 20% pluronic acid in DMSO diluted 1:250 in Krebs-Ringer HEPES (KRH) buffer (25 mM HEPES, 5 mM KCl, 0.96 mM NaH2PO4, 1 mM MgSO4, 2 mM CaCl2, 5 mM glucose, 1 mM probenecid, pH 7.4), 50 μl diluted solution per well). Plates are covered with aluminum foil and incubated at 37° C. for 1-2 hours in an environment containing 5% CO2. After the incubation, the dye is emptied from the plates, and the cells are washed once with KRH buffer, and resuspended in KRH buffer.
To measure the ability of a test compound to agonize or antagonize a calcium mobilization response in cells expressing capsaicin receptors to capsaicin or other vanilloid agonist, the EC50 of the agonist capsaicin is first determined. An additional 20 μl of KRH buffer and 1 μl DMSO is added to each well of cells, prepared as described above. 100 μl capsaicin in KRH buffer is automatically transferred by the FLIPR instrument to each well. Capsaicin-induced calcium mobilization is monitored using either FLUOROSKAN ASCENT (Labsystems; Franklin, Mass.) or FLIPR (fluorometric imaging plate reader system; Molecular Devices, Sunnyvale, Calif.) instruments. Data obtained between 30 and 60 seconds after agonist application are used to generate an 8-point concentration response curve, with final capsaicin concentrations of 1 nM to 3 μM. KALEIDAGRAPH software (Synergy Software, Reading, Pa.) is used to fit the data to the equation: y=a*(1/(1+(b/x)^c)) to determine the 50% excitatory concentration (EC50) for the response. In this equation, y is the maximum fluorescence signal, x is the concentration of the agonist or antagonist (in this case, capsaicin), a is the Emax, b corresponds to the EC50 value and c is the Hill coefficient. Determination of Agonist Activity
Test compounds are dissolved in DMSO, diluted in 20 μl KRH buffer so that the final concentration of test compounds in the assay well is between 1 μM and 5 μM, and added to cells prepared as described above. The 96 well plates containing prepared cells and test compounds are incubated in the dark, at room temperature for 0.5 to 6 hours. It is important that the incubation not continue beyond 6 hours. Just prior to determining the fluorescence response, 100 μl capsaicin in KRH buffer at twice the EC50 concentration determined as described above is automatically added by the FLIPR instrument to each well of the 96 well plate for a final sample volume of 200 μl and a final capsaicin concentration equal to the EC50. The final concentration of test compounds in the assay wells is between 1 μM and 5 μM. […] The concentration of antagonist required to provide a 50% decrease, relative to the response observed in the presence of capsaicin and without antagonist, is the IC50 for the antagonist, and is preferably below 1 micromolar, 100 nanomolar, 10 nanomolar or 1 nanomolar.

Where [1] appears, read: read-out: IC50 determined as described in Example 6.

T1 sequence (Q8NER1 whole entry): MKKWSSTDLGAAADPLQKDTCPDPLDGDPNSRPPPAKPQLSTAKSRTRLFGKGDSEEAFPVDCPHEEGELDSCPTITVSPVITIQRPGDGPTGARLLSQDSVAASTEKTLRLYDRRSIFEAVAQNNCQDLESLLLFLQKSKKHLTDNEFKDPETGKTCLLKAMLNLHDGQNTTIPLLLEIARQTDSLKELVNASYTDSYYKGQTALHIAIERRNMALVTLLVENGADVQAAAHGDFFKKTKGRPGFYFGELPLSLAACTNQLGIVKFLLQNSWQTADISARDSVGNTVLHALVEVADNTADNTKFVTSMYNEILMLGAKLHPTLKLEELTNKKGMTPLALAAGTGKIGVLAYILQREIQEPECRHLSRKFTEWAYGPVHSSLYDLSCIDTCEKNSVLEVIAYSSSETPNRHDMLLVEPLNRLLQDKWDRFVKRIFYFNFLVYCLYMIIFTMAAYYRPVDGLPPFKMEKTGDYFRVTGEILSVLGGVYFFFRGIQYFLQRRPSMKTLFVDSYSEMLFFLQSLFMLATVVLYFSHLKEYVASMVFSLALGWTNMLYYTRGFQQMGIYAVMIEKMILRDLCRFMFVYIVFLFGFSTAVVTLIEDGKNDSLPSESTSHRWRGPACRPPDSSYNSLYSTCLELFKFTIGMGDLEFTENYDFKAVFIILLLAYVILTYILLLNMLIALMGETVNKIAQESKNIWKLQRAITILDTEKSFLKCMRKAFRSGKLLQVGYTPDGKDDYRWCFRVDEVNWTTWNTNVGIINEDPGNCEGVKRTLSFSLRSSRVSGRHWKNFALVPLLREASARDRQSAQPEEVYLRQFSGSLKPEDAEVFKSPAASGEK

`CCn1cnc2c(=O)n(-c3ccc(F)cc3)c(CC(C)C(F)(F)F)nc21` (stereo not drawn) [Compound 10, 9-ethyl-1-(4-fluorophenyl)-2-(3,3,3-trifluoro-2-methylpropyl)-1,9-dihydro-6H-purin-6-one]: the half-maximal inhibitory concentration (IC50) (read-out: IC50) was at most 100 nM.
`CC(Cc1nc2c(ncn2C)c(=O)n1-c1ccc(Cl)cc1)CC(F)(F)F` (stereo not drawn) [Compound 12, 1-(4-chlorophenyl)-9-methyl-2-(4,4,4-trifluoro-2-methylbutyl)-1,9-dihydro-6H-purin-6-one]: the IC50 (read-out: IC50) was at most 100 nM.
For the compound `CCn1cnc2c(=O)n(-c3ccc(Cl)nc3)c(CC(C)C(F)(F)F)nc21` (stereo not drawn) [Compound 7, 1-(6-chloropyridin-3-yl)-9-ethyl-2-(3,3,3-trifluoro-2-methylpropyl)-1,9-dihydro-6H-purin-6-one], under setting [1], the concentration for half-maximal inhibition (IC50) was at most 100 nM.
As for `CCn1cnc2c(=O)n(-c3ccc(Cl)cc3)c(CCC(C)C(F)(F)F)nc21` (stereo not drawn) [Compound 16, 1-(4-chlorophenyl)-9-ethyl-2-(4,4,4-trifluoro-3-methylbutyl)-1,9-dihydro-6H-purin-6-one], the IC50 (read-out: IC50) was at most 100 nM.
Still for that read-out and setting: as for `CC(CCc1nc2c(ncn2C)c(=O)n1-c1ccc(C#N)cc1)C(F)(F)F` (stereo not drawn) [Compound 28, 4-[9-methyl-6-oxo-2-(4,4,4-trifluoro-3-methylbutyl)-6,9-dihydro-1H-purin-1-yl]benzonitrile], the figure is at most 100 nM.
Still for that read-out and setting: as for `CCn1cnc2c(=O)n(-c3ccc(Cl)cc3)c(CC(C)C(F)(F)F)nc21` (stereo not drawn) [Compound 8, 1-(4-chlorophenyl)-9-ethyl-2-(3,3,3-trifluoro-2-methylpropyl)-1,9-dihydro-6H-purin-6-one], the figure is at most 100 nM; as for `CC(Cc1nc2c(ncn2C)c(=O)n1-c1ccc(C#N)cc1)CC(F)(F)F` (stereo not drawn) [Compound 29, 4-[9-methyl-6-oxo-2-(4,4,4-trifluoro-2-methylbutyl)-6,9-dihydro-1H-purin-1-yl]benzonitrile], at most 100 nM; as for `CC(Cc1nc2c(ncn2CC(F)F)c(=O)n1-c1ccc(Cl)cc1)CC(F)(F)F` (stereo not drawn) [Compound 21, 1-(4-chlorophenyl)-9-(2,2-difluoroethyl)-2-(4,4,4-trifluoro-2-methylbutyl)-1,9-dihydro-6H-purin-6-one], at most 100 nM.
The same measure, in the same setting: the result for `CC(Cc1nc2c(ncn2C)c(=O)n1-c1ccc(F)cc1)CC(F)(F)F` (stereo not drawn) [Compound 14, 1-(4-fluorophenyl)-9-methyl-2-(4,4,4-trifluoro-2-methylbutyl)-1,9-dihydro-6H-purin-6-one] reads at most 100 nM.
For `CC(CCc1nc2c(ncn2CC(F)(F)F)c(=O)n1-c1ccc(Cl)cc1)C(F)(F)F` (stereo not drawn) [Compound 25, 1-(4-chlorophenyl)-9-(2,2,2-trifluoroethyl)-2-(4,4,4-trifluoro-3-methylbutyl)-1,9-dihydro-6H-purin-6-one], the 50% inhibitory concentration (IC50) (read-out: IC50) was at most 100 nM.
Regarding `CCn1cnc2c(=O)n(-c3ccc(C#N)cc3)c(CC(C)C(F)(F)F)nc21` (stereo not drawn) [Compound 36, 4-[9-ethyl-6-oxo-2-(3,3,3-trifluoro-2-methylpropyl)-6,9-dihydro-1H-purin-1-yl]benzonitrile], the IC50 (read-out: IC50) is at most 100 nM.
With `CC(CCc1nc2c(ncn2CC(F)F)c(=O)n1-c1ccc(F)cc1)C(F)(F)F` (stereo not drawn) [Compound 27, 9-(2,2-difluoroethyl)-1-(4-fluorophenyl)-2-(4,4,4-trifluoro-3-methylbutyl)-1,9-dihydro-6H-purin-6-one], the IC50 (read-out: IC50) is at most 100 nM.
With `CC(Cc1nc2c(ncn2C2CC2)c(=O)n1-c1ccc(Cl)cc1)CC(F)(F)F` (stereo not drawn) [Compound 15, 1-(4-chlorophenyl)-9-cyclopropyl-2-(4,4,4-trifluoro-2-methylbutyl)-1,9-dihydro-6H-purin-6-one], for the setting “read-out: IC50”, the 50% inhibitory concentration (IC50) was at most 100 nM.
On the same count and under the same terms, the result for `CC(Cc1nc2c(ncn2CC(F)(F)F)c(=O)n1-c1ccc(Cl)cc1)CC(F)(F)F` (stereo not drawn) [Compound 20, 1-(4-chlorophenyl)-9-(2,2,2-trifluoroethyl)-2-(4,4,4-trifluoro-2-methylbutyl)-1,9-dihydro-6H-purin-6-one] reads at most 100 nM.
With `CCn1cnc2c(=O)n(-c3ccc(C#N)cc3)c(CC(C)CC(F)(F)F)nc21` (stereo not drawn) [Compound 31, 4-[9-ethyl-6-oxo-2-(4,4,4-trifluoro-2-methylbutyl)-6,9-dihydro-1H-purin-1-yl]benzonitrile], the 50% inhibitory concentration (IC50) (read-out: IC50) was at most 100 nM.
`C[C@H](CCc1nc2c(ncn2C)c(=O)n1-c1ccc(Cl)cc1)C(F)(F)F` [Compound 33, 1-(4-chlorophenyl)-9-methyl-2-[(3R)-4,4,4-fluoro-3-methylbutyl]-1,9-dihydro-6H-purin-6-one]: under “read-out: IC50”, the IC50 is at most 100 nM.
As for `C[C@H](Cc1nc2c(ncn2C)c(=O)n1-c1ccc(Cl)cc1)C(F)(F)F` [Compound 6, (R)-1-(4-Chlorophenyl)-9-methyl-2-(3,3,3-trifluoro-2-methylpropyl)-1H-purin-6(9H)-one], the IC50 under setting [1] was at most 100 nM.
For the compound `CC(Cc1nc2cccnc2c(=O)n1-c1ccc(Cl)cc1)CC(F)(F)F` (stereo not drawn) [Compound 35, 3-(4-chlorophenyl)-2-(4,4,4-trifluoro-2-methylbutyl)pyrido[3,2-d]pyrimidin-4(3H)-one], the IC50 (read-out: IC50) was at most 100 nM.
Still for that read-out and setting: the result for `CC(Cc1nc2c(ncn2C)c(=O)n1-c1ccc(Cl)cc1)C(F)(F)F` (stereo not drawn) [Compound 9, 1-(4-chlorophenyl)-9-methyl-2-(3,3,3-trifluoro-2-methylpropyl)-1,9-dihydro-6H-purin-6-one] reads at most 100 nM; that for `CC(Cc1nc2c(ncn2CC(F)F)c(=O)n1-c1ccc(F)cc1)CC(F)(F)F` (stereo not drawn) [Compound 26, 9-(2,2-difluoroethyl)-1-(4-fluorophenyl)-2-(4,4,4-trifluoro-2-methylbutyl)-1,9-dihydro-6H-purin-6-one], at most 100 nM.
For `C[C@@H](CCc1nc2c(ncn2C)c(=O)n1-c1ccc(Cl)cc1)C(F)(F)F` [Compound 32, 1-(4-chlorophenyl)-9-methyl-2-[(3S)-4,4,4-fluoro-3-methylbutyl]-1,9-dihydro-6H-purin-6-one], the concentration for half-maximal inhibition (IC50) (read-out: IC50) was at most 100 nM.
Consider `CC(CCc1nc2c(ncn2C)c(=O)n1-c1ccc(Cl)cc1)C(F)(F)F` (stereo not drawn) [Compound 17, 1-(4-chlorophenyl)-9-methyl-2-(4,4,4-trifluoro-3-methylbutyl)-1,9-dihydro-6H-purin-6-one], for which the IC50 (read-out: IC50) was at most 100 nM.
Take `CC(Cc1nc2c(ncn2CC(F)F)c(=O)n1-c1ccc(Cl)cc1)C(F)(F)F` (stereo not drawn) [Compound 22, 1-(4-chlorophenyl)-9-(2,2-difluoroethyl)-2-(3,3,3-trifluoro-2-methylpropyl)-1,9-dihydro-6H-purin-6-one]: the IC50 (read-out: IC50) is at most 100 nM.
`CCn1cnc2c(=O)n(-c3ccc(F)cc3)c(CCC(C)C(F)(F)F)nc21` (stereo not drawn) [Compound 18, 9-ethyl-1-(4-fluorophenyl)-2-(4,4,4-trifluoro-3-methylbutyl)-1,9-dihydro-6H-purin-6-one]: the IC50 (read-out: IC50) was at most 100 nM.
For the compound `C[C@H](Cc1nc2c(ncn2C)c(=O)n1-c1ccc(Cl)cc1)CC(F)(F)F` [Compound 30, 1-(4-chlorophenyl)-9-methyl-2-[(2R)-4,4,4-trifluoro-2-methylbutyl]-1,9-dihydro-6H-purin-6-one], the IC50 (read-out: IC50) was at most 100 nM.
Consider `CC(CCc1nc2c(ncn2C)c(=O)n1-c1ccc(F)cc1)C(F)(F)F` (stereo not drawn) [Compound 19, 1-(4-fluorophenyl)-9-methyl-2-(4,4,4-trifluoro-3-methylbutyl)-1,9-dihydro-6H-purin-6-one], for which the concentration for half-maximal inhibition (IC50) (read-out: IC50) was at most 100 nM.
With `CC(Cc1nc2c(ncn2C)c(=O)n1-c1ccc(C#N)cc1)C(F)(F)F` (stereo not drawn) [Compound 37, 4-[9-methyl-6-oxo-2-(3,3,3-trifluoro-2-methylpropyl)-6,9-dihydro-1H-purin-1-yl]benzonitrile], the 50% inhibitory concentration (IC50) (read-out: IC50) is at most 100 nM.

The IC50 is the midpoint of a concentration-inhibition curve.
